Data as given in US20230278972A1, “SUBSTITUTED HALOALKYL SULFONANILIDE HERBICIDES” (FMC Corporation, priority 2020, published 2023).

Assays:
Format in all cases: in vivo
[1] = system: corn (Zea mays); test: Test A1 preemergence, corn
Summary of the method: (§1)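 Plants grown in pots of loam/sand mix; preemergence = soil-directed spray on seeded pots, postemergence = spray at 1–2 leaves, height 2–10 cm; test chemicals formulated in non-phytotoxic solvent with surfactant.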

[2] = system: Foxtail, Giant (giant foxtail, Setaria faberi); test: Test A1 preemergence, Foxtail, Giant
Summary of the method: as §1

[3] = system: kochia (Bassia scoparia); test: Test A1 preemergence, kochia
Summary of the method: as §1

[4] = system: Oat, Wild (wild oat, Avena fatua); test: Test A1 preemergence, Oat, Wild
Summary of the method: as §1

[5] = system: ragweed (common ragweed, Ambrosia artemisiifolia); test: Test A1 preemergence, ragweed
Summary of the method: as §1

[6] = system: kochia (Bassia scoparia); test: Test A1 postemergence, kochia; conditions: Postemergence
Summary of the method: as §1

[7] = system: Oat, Wild (wild oat, Avena fatua); test: Test A1 postemergence, Oat, Wild; conditions: Postemergence
Summary of the method: as §1

[8] = system: ragweed (common ragweed, Ambrosia artemisiifolia); test: Test A1 postemergence, ragweed; conditions: Postemergence
Summary of the method: as §1

[9] = system: soybean (Glycine max); test: Test A1 postemergence, soybean; conditions: Postemergence
Summary of the method: as §1

[10] = system: barnyardgrass (Echinochloa crus-galli); test: Test B1 flooded paddy test, barnyardgrass; conditions: 250 g ai/ha, Flood, applied to paddy water, 2-leaf stage, visually evaluated after 10 to 14 days
Description: A dash (-) response means no test result.

[11] = 31 g ai/ha, 0 to 100 scale (0 no effect, 100 complete control)
[12] = 125 g ai/ha, 0 to 100 scale, 0 no effect, 100 complete control
[13] = 31 g ai/ha, 0 to 100 scale (0 no effect, 100 complete control), 10 days

Row | SMILES | Plant response rating, Corn [1, 11] | Plant response rating, Corn [1, 12] | Plant response rating, Foxtail, Giant [2, 11] | Plant response rating, Foxtail, Giant [2, 12] | Plant response rating, Kochia [3, 11] | Plant response rating, Kochia [3, 12] | Plant response rating, Oat, Wild [4, 11] | Plant response rating, Oat, Wild [4, 12] | Plant response rating, Ragweed [5, 11] | Plant response rating, Ragweed [5, 12] | Plant response rating, Kochia [6, 13] | Plant response rating, Kochia ([6]; 125 g ai/ha, 0 to 100 scale) | Plant response rating, Oat, Wild [7, 13] | Plant response rating, Oat, Wild ([7]; 125 g ai/ha, 0 to 100 scale) | Plant response rating, Ragweed [8, 13] | Plant response rating, Ragweed ([8]; 125 g ai/ha, 0 to 100 scale) | Plant response rating, Soybean [9, 13] | Plant response rating, Soybean ([9]; 125 g ai/ha, 0 to 100 scale) | Plant response rating, Barnyardgrass (0 to 100 scale, 0 is no effect, 100 is complete control) [10]
1 | Cc1c(NS(=O)(=O)C(F)(F)F)cc(C2=NOC3CCCC23)c(C)c1C (stereo not shown) [Compound 335] | 0 | 60 | 60 | 100 | 20 | 60 | 0 | 30 | 20 | 90 | 10 | 60 | 0 | 0 | 50 | 80 | 0 | 30 | 95
2 | Cc1c(NS(=O)(=O)C(F)(F)F)cc(C(=O)N(C)C)c(C)c1C [Compound 288] | 0 | 0 | 20 | 90 | 0 | 40 | 0 | 0 | 0 | 40 | 0 | 10 | 0 | 0 | 30 | 80 | 30 | 40 | 0
3 | Cc1cc(C)c(N(COC(=O)C(C)C)S(=O)(=O)C(F)(F)F)cc1C1=NOC2CCCC12 (stereo not shown) [Compound 308] | 0 | 60 | 50 | 80 | 20 | 70 | 0 | 50 | 0 | 50 | 20 | 70 | 0 | 0 | 50 | 90 | 40 | 60 | 95
4 | Cc1c(NS(=O)(=O)C(F)(F)F)cc(C(=O)N2CC(C)OC(C)C2)c(C)c1C (stereo not shown) [Compound 327] | 0 | 60 | 100 | 100 | 0 | 70 | 0 | 70 | 90 | 90 | 10 | 30 | 0 | 0 | 70 | 90 | 60 | 60 | 30
5 | CCOC(=O)N(c1cc(C(=O)N2C[C@@H](C)O[C@@H](C)C2)c(C)c(C)c1C)S(=O)(=O)C(F)(F)F [Compound 332] | 0 | 10 | 100 | 100 | 20 | 60 | 0 | 20 | 50 | 80 | 0 | 10 | 0 | 30 | 80 | 80 | 60 | 100 | 98
6 | Cc1cc(C)c(N(COC(=O)C(C)(C)C)S(=O)(=O)C(F)(F)F)cc1C(=O)N1CCOCC1 [Compound 362] | 0 | 30 | 20 | 90 | 50 | 90 | 0 | 30 | 0 | 50 | 50 | 80 | 0 | 10 | 70 | 80 | 50 | 70 | 95
7 | Cc1cc(C)c(C2=NOC3CCCCCC23)cc1NS(=O)(=O)C(F)(F)F (stereo not shown) [Compound 292] | 0 | 40 | 50 | 100 | 30 | 80 | 0 | 50 | 10 | 80 | 30 | 50 | 10 | 30 | 20 | 40 | 20 | 80 | 0
8 | Cc1c(C(=O)N2CCC(Cl)CC2)cc(N(COC(=O)C(C)(C)C)S(=O)(=O)C(F)(F)F)c(C)c1C [Compound 359] | 0 | 0 | 0 | 90 | 0 | 0 | 0 | 0 | 0 | 80 | 30 | 40 | 0 | 0 | 30 | 70 | 50 | 60 | 95
9 | Cc1cc(F)c(C2=NOC3CCCC23)cc1NS(=O)(=O)C(F)(F)F (stereo not shown) [Compound 310] | 0 | 0 | 0 | 20 | 0 | 40 | 0 | 0 | 0 | 20 | 0 | 20 | 0 | 10 | 0 | 30 | 20 | 30 | 0
10 | CCc1cc(C)c(NS(=O)(=O)C(F)(F)F)cc1C1=NOC2CCCC12 (stereo not shown) [Compound 305] | 10 | 90 | 20 | 90 | 0 | 40 | 20 | 60 | 0 | 20 | 0 | 10 | 20 | 20 | 0 | 60 | 10 | 50 | 90
11 | Cc1c(NS(=O)(=O)C(F)(F)F)cc(C(=O)N2CCC(F)(F)CC2)c(C)c1C [Compound 357] | 10 | 90 | 10 | 90 | 20 | 40 | 0 | 0 | 0 | 80 | 0 | 30 | 0 | 0 | 80 | 80 | 40 | 90 | 45
12 | Cc1cc(C)c(N(COC(=O)OC(C)(C)C)S(=O)(=O)C(F)(F)F)cc1C1=NOC2CCCC12 (stereo not shown) [Compound 316] | 0 | 0 | 0 | 30 | 0 | 50 | 0 | 0 | 0 | 20 | 30 | 70 | 0 | 10 | 0 | 50 | 10 | 50 | 95
13 | Cc1cc(C)c(N(COC(=O)C(C)(C)C)S(=O)(=O)C(F)(F)F)cc1C(=O)N1CCC(C)CC1 [Compound 353] | 10 | 30 | 10 | 80 | 0 | 20 | 0 | 0 | 20 | 20 | 10 | 50 | 0 | 10 | 20 | 60 | 50 | 60 | 90
